ChEMBL document CHEMBL1146551, “Simplified tetrandrine congeners as possible antihypertensive agents with a dual mechanism of action” (J Nat Prod, 2003)

Tests used:
[1] = biological target: T1, Adrenergic receptor alpha-1 (Rattus norvegicus, UniProt P15823+P23944+P43140); test: Displacement of [3H]prazosin from alpha1 adrenergic receptor in Wistar rat cerebral cortex membrane; assay type: tissue-based
T1 sequence (P15823 whole entry): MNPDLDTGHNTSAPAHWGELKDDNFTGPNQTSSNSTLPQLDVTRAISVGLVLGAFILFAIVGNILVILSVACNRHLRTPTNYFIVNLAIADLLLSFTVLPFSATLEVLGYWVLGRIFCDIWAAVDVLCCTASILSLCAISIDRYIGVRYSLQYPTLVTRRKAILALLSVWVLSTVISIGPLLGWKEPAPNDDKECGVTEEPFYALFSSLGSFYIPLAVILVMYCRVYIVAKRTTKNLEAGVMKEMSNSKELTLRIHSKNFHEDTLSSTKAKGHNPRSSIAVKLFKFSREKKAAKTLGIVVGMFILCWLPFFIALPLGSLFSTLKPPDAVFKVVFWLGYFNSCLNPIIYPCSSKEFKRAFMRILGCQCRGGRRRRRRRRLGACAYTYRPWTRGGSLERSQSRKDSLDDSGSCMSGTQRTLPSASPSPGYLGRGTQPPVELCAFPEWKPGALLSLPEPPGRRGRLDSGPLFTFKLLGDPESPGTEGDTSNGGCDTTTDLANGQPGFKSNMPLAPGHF
T1 sequence (P23944 whole entry): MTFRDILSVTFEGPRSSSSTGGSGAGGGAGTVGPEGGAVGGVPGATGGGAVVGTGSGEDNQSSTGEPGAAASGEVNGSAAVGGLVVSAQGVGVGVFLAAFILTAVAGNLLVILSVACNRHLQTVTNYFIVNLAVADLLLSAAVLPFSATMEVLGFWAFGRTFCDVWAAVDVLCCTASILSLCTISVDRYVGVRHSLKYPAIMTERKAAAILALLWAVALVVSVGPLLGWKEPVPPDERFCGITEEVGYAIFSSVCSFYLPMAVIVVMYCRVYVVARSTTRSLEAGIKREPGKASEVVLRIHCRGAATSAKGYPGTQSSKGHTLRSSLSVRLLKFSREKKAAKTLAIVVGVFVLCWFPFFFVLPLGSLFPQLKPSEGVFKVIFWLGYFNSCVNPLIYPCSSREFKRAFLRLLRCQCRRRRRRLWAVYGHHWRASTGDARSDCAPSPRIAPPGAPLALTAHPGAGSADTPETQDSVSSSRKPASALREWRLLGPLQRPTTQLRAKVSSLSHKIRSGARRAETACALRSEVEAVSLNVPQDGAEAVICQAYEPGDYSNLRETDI
T1 sequence (P43140 whole entry): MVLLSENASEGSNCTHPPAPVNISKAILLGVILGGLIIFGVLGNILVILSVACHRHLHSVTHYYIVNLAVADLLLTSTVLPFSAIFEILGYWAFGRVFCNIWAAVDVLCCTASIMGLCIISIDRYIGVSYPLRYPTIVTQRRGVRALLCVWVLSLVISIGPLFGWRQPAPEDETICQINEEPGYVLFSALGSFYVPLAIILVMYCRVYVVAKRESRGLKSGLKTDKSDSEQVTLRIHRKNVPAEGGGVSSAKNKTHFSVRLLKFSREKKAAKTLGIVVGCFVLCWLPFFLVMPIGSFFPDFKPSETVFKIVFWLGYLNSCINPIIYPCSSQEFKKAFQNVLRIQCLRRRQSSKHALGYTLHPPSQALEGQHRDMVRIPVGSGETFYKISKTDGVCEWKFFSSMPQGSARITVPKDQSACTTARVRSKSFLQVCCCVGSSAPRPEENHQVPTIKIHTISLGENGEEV

[2] = biological target: Voltage-gated L-type calcium channel (Rattus norvegicus, UniProt P22002+Q02485+P27732); test: Displacement of [3H]diltiazem from benzothiazepine binding site of L-type calcium channel in Wistar rat cerebral cortex membrane
[3] = system: Aorta; test: Vasorelaxant activity against noradrenaline-induced contraction in Wistar rat thoracic aorta in presence of calcium; assay type: functional, tissue-based
[4] = system: Aorta; test: Vasorelaxant activity against KCl-induced contraction in Wistar rat thoracic aorta in presence of calcium; assay type: functional, tissue-based
[5] = system: Aorta; test: Vasorelaxant activity against KCl-induced contraction in Wistar rat thoracic aorta at 100 uM in presence of calcium; assay type: functional; design: scale not given: the % may be the effect or the level left

CCN1CCc2cc(OC)c(OC)cc2C1Cc1ccc(O)cc1 (racemic)
pKi [1]: 5.07
pKi [2]: 4.51

COc1cc2c(cc1OC)C(Cc1ccc(O)cc1)N(C)CC2 (racemic)
pKi [1]: 5.14
pKi [2]: 5.02
IC50 [3]: 209 µM
IC50 [4]: 115 µM

COc1ccc(CC2NCCc3cc(OC)c(O)cc32)cc1 (racemic)
pKi [1]: 4.92
pKi [2]: 4.49

COc1ccc(CC2c3cc(O)c(OC)cc3CCN2C)cc1 (racemic)
pKi [1]: 5.29
pKi [2]: 4.9
IC50 [3]: 25.1 µM
IC50 [4]: 72.4 µM

COc1cc2c(cc1O)C(Cc1ccc(OCc3ccccc3)cc1)NCC2 (racemic)
pKi [1]: 5.69
pKi [2]: 5.57
IC50 [3]: 16.2 µM
IC50 [4]: 13.8 µM

COc1ccc(CC2c3cc(OC)c(OC)cc3CCN2C)cc1 (racemic)
pKi [1]: 5.1
pKi [2]: 5.38
IC50 [3]: 66.1 µM
IC50 [4]: 14.8 µM

COc1cc2c(cc1OCc1ccccc1)C(Cc1ccc(OCc3ccccc3)cc1)NCC2 (racemic)
pKi [1]: 5.02
pKi [2]: 4.61

COc1cc2c(cc1OCc1ccccc1)C(Cc1ccc(OCc3ccccc3)cc1)N(C)CC2 (racemic)
pKi [1]: 5.12
pKi [2]: 5.74

CCCN1CCc2cc(OC)c(OCc3ccccc3)cc2C1Cc1ccc(OCc2ccccc2)cc1 (racemic)
pKi [1]: 5.05
pKi [2]: 5.75

CCN1CCc2cc(OC)c(O)cc2C1Cc1ccc(O)cc1 (racemic)
pKi [1]: 5.29
pKi [2]: 4.86

COc1cc2c(cc1OCc1ccccc1)C(Cc1ccc(O)cc1)N(C)CC2 (racemic)
pKi [1]: 5.49
pKi [2]: 5.7
IC50 [3]: 8.71 µM
IC50 [4]: 5.75 µM

COc1ccc(CC2NCCc3cc(OC)c(OCc4ccccc4)cc32)cc1 (racemic)
pKi [1]: 5.34

COc1ccc(CC2c3cc(OCc4ccccc4)c(OC)cc3CCN2C)cc1 (racemic)
pKi [1]: 5.73
pKi [2]: 5.82
IC50 [3]: 4.27 µM
IC50 [4]: 11.5 µM

COc1cc2c(cc1OC)C(Cc1ccc(O)cc1)NCC2 (racemic)
pKi [1]: 5.23

COc1cc2c(cc1OCc1ccccc1)C(Cc1ccc(O)cc1)NCC2 (racemic)
pKi [1]: 5.49
pKi [2]: 5.6
IC50 [3]: 13.2 µM
IC50 [4]: 7.59 µM

COc1cc2c(cc1O)C(Cc1ccc(O)cc1)NCC2 (racemic) [COCLAURINE]
Activity [5]: 17.2%
pKi [1]: 5.97
Activity ([2]; rat): 30%
IC50 [3]: 17.4 µM

COc1cc2c(cc1O)C(Cc1ccc(O)cc1)N(C)CC2 (racemic) [METHYL COCLAURINE]
pKi [1]: 5.63
pKi [2]: 4.64
IC50 [3]: 24.5 µM
IC50 [4]: 67.6 µM

COc1ccc2cc1Oc1ccc(cc1)C[C@H]1c3cc(c(OC)cc3CCN1C)Oc1c(OC)c(OC)cc3c1[C@H](C2)N(C)CC3 [FANCHININ]
pKi [1]: 6.16
pKi [2]: 6.13
IC50 [3]: 29.5 µM
IC50 [4]: 13.5 µM
